# Tests used:
# Format in all cases: in vivo
# Alopecurus myosuroides = test: Pre-emergence test, weed control; settings: 3 weeks after treatment, rating 0-100 (100=death), Table 1
# How it was run: (§1)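 Using a 900 l/ha spray volume, test formulations are applied to newly sown soil at five rates from 15 to 240 g/ha. Each formulation is an acetone solution containing 0.4% w/w wetting agent, diluted with water; visual 0–100 ratings follow at three weeks.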
# Apera spica-venti = test: Pre-emergence test, weed control; settings: 3 weeks after treatment, rating 0-100 (100=death), Table 1
# How it was run: as §1
# Galium aparine [1] = test: Pre-emergence test, weed control; settings: 3 weeks after treatment, rating 0-100 (100=death), Table 1
# How it was run: as §1
# Lamium purpureum = test: Pre-emergence test, weed control; settings: 3 weeks after treatment, rating 0-100 (100=death), Table 1
# How it was run: as §1
# Lolium perenne = test: Pre-emergence test, weed control; settings: 3 weeks after treatment, rating 0-100 (100=death), Table 1
# How it was run: as §1
# Matricaria inodora = test: Pre-emergence test, weed control; settings: 3 weeks after treatment, rating 0-100 (100=death), Table 1
# How it was run: as §1
# Poa annua = test: Pre-emergence test, weed control; settings: 3 weeks after treatment, rating 0-100 (100=death), Table 1
# How it was run: as §1
# Polygonum convolvulus [2] = test: Pre-emergence test, weed control; settings: 3 weeks after treatment, rating 0-100 (100=death), Table 1
# How it was run: as §1
# Setaria viridis [3] = test: Pre-emergence test, weed control; settings: 3 weeks after treatment, rating 0-100 (100=death), Table 1
# How it was run: as §1
# Stellaria media = test: Pre-emergence test, weed control; settings: 3 weeks after treatment, rating 0-100 (100=death), Table 1
# How it was run: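 Herbicidal effect was scored visually on a 0–100 scale (100 = death, 0 = untreated-like) three weeks after treatment. Soil was horticultural loam sprayed just after sowing with aqueous-diluted acetone/0.4% TRITON X-155 formulations at 15–240 g a.i./ha (900 L/ha).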
# Veronica persica = test: Pre-emergence test, weed control; settings: 3 weeks after treatment, rating 0-100 (100=death), Table 1
# How it was run: as §1
# HORVW = test: Pre-emergence test, selectivity; settings: 3 weeks after treatment, rating 0-100 (100=death), Table 2
# How it was run: as §1
# [4] = system: Hordeum vulgare variety “Mammut”; test: Pre-emergence test, selectivity; settings: 3 weeks after treatment, rating 0-100 (100=death), Table 2
# How it was run: as §1
# [5] = system: Triticum aestivum variety “Kanzler”; test: Pre-emergence test, selectivity; settings: 3 weeks after treatment, rating 0-100 (100=death), Table 2
# How it was run: as §1
# [6] = system: Triticum aestivum variety “Monopol”; test: Pre-emergence test, selectivity; settings: 3 weeks after treatment, rating 0-100 (100=death), Table 2
# How it was run: as §1
# Galium aparine [7] = test: Post-emergence test, weed control; settings: 2–4 weeks after treatment, rating 0-100 (100=death), Table 5
# Description: (§2) These acetone solutions are diluted with water and the resulting formulations applied at dosage levels equivalent of about 0.030 to 0.240 kg per hectare of test compound per pot. After spraying the plants are placed an greenhouse benches and are cared for in the usual manner, commensurate with conventional greenhouse practices. From 2 to 4 weeks after treatment, the seedling plants are examined and rated according to the rating system provided above. A rating 0 indicates growth as untreated control, a rating 100 indicates death.
# Polygonum convolvulus [8] = test: Post-emergence test, weed control; settings: 2–4 weeks after treatment, rating 0-100 (100=death), Table 5
# Description: as §2
# Setaria viridis [9] = test: Post-emergence test, weed control; settings: 2–4 weeks after treatment, rating 0-100 (100=death), Table 5
# Description: as §2
# VIOAR = test: Post-emergence test, weed control; settings: 2–4 weeks after treatment, rating 0-100 (100=death), Table 5
# Description: as §2
smiles,measurement,setting,value
CCc1cc(Oc2cccc(C(F)(F)F)c2)nc(-c2ccc(C(F)(F)F)cc2)n1 [REF-3],ALOMY weed control rating,Alopecurus myosuroides; 0.015 kg/ha,55
same,ALOMY weed control rating,Alopecurus myosuroides; 0.030 kg/ha,98
same,ALOMY weed control rating,Alopecurus myosuroides; 0.060 kg/ha,98
same,ALOMY weed control rating,Alopecurus myosuroides; 0.120 kg/ha,100
same,ALOMY weed control rating,Alopecurus myosuroides; 0.240 kg/ha,100
same,APESV weed control rating,Apera spica-venti; 0.015 kg/ha,100
same,APESV weed control rating,Apera spica-venti; 0.030 kg/ha,100
same,APESV weed control rating,Apera spica-venti; 0.060 kg/ha,100
same,APESV weed control rating,Apera spica-venti; 0.120 kg/ha,100
same,APESV weed control rating,Apera spica-venti; 0.240 kg/ha,100
same,GALAP weed control rating,Galium aparine [1]; 0.060 kg/ha,50
same,GALAP weed control rating,Galium aparine [1]; 0.120 kg/ha,85
same,GALAP weed control rating,Galium aparine [1]; 0.240 kg/ha,97
same,LAMPU weed control rating,Lamium purpureum; 0.015 kg/ha,100
same,LAMPU weed control rating,Lamium purpureum; 0.030 kg/ha,100
same,LAMPU weed control rating,Lamium purpureum; 0.060 kg/ha,100
same,LAMPU weed control rating,Lamium purpureum; 0.120 kg/ha,100
same,LAMPU weed control rating,Lamium purpureum; 0.240 kg/ha,100
same,LOLPE weed control rating,Lolium perenne; 0.015 kg/ha,90
same,LOLPE weed control rating,Lolium perenne; 0.030 kg/ha,98
same,LOLPE weed control rating,Lolium perenne; 0.060 kg/ha,99
same,LOLPE weed control rating,Lolium perenne; 0.120 kg/ha,99
same,LOLPE weed control rating,Lolium perenne; 0.240 kg/ha,100
same,MATIN weed control rating,Matricaria inodora; 0.015 kg/ha,99
same,MATIN weed control rating,Matricaria inodora; 0.030 kg/ha,99
same,MATIN weed control rating,Matricaria inodora; 0.060 kg/ha,99
same,MATIN weed control rating,Matricaria inodora; 0.120 kg/ha,100
same,MATIN weed control rating,Matricaria inodora; 0.240 kg/ha,100
same,POAAN weed control rating,Poa annua; 0.015 kg/ha,100
same,POAAN weed control rating,Poa annua; 0.030 kg/ha,100
same,POAAN weed control rating,Poa annua; 0.060 kg/ha,100
same,POAAN weed control rating,Poa annua; 0.120 kg/ha,100
same,POAAN weed control rating,Poa annua; 0.240 kg/ha,100
same,POLCO weed control rating,Polygonum convolvulus [2]; 0.015 kg/ha,25
same,POLCO weed control rating,Polygonum convolvulus [2]; 0.030 kg/ha,70
same,POLCO weed control rating,Polygonum convolvulus [2]; 0.060 kg/ha,80
same,POLCO weed control rating,Polygonum convolvulus [2]; 0.120 kg/ha,100
same,POLCO weed control rating,Polygonum convolvulus [2]; 0.240 kg/ha,100
same,SETVI weed control rating,Setaria viridis [3]; 0.015 kg/ha,100
same,SETVI weed control rating,Setaria viridis [3]; 0.030 kg/ha,100
same,SETVI weed control rating,Setaria viridis [3]; 0.060 kg/ha,100
same,SETVI weed control rating,Setaria viridis [3]; 0.120 kg/ha,100
same,SETVI weed control rating,Setaria viridis [3]; 0.240 kg/ha,100
same,STEME weed control rating,Stellaria media; 0.015 kg/ha,98
same,STEME weed control rating,Stellaria media; 0.030 kg/ha,100
same,STEME weed control rating,Stellaria media; 0.060 kg/ha,100
same,STEME weed control rating,Stellaria media; 0.120 kg/ha,100
same,STEME weed control rating,Stellaria media; 0.240 kg/ha,100
same,VERPE weed control rating,Veronica persica; 0.015 kg/ha,100
same,VERPE weed control rating,Veronica persica; 0.030 kg/ha,100
same,VERPE weed control rating,Veronica persica; 0.060 kg/ha,100
same,VERPE weed control rating,Veronica persica; 0.120 kg/ha,100
same,VERPE weed control rating,Veronica persica; 0.240 kg/ha,100
same,HORVW rating (Selectivity),HORVW; 0.015 kg/ha,15
same,HORVW rating (Selectivity),HORVW; 0.030 kg/ha,45
same,HORVW rating (Selectivity),HORVW; 0.060 kg/ha,45
same,HORVW rating (Selectivity),HORVW; 0.120 kg/ha,60
same,HORVW rating (Selectivity),HORVW; 0.240 kg/ha,60
same,HORVWM rating (Selectivity),[4]; 0.015 kg/ha,20
same,HORVWM rating (Selectivity),[4]; 0.030 kg/ha,30
same,HORVWM rating (Selectivity),[4]; 0.060 kg/ha,40
same,HORVWM rating (Selectivity),[4]; 0.120 kg/ha,55
same,HORVWM rating (Selectivity),[4]; 0.240 kg/ha,55
same,TRZAWK rating (Selectivity),[5]; 0.015 kg/ha,5
same,TRZAWK rating (Selectivity),[5]; 0.030 kg/ha,8
same,TRZAWK rating (Selectivity),[5]; 0.060 kg/ha,8
same,TRZAWK rating (Selectivity),[5]; 0.120 kg/ha,25
same,TRZAWK rating (Selectivity),[5]; 0.240 kg/ha,40
same,TRZAWM rating (Selectivity),[6]; 0.015 kg/ha,3
same,TRZAWM rating (Selectivity),[6]; 0.030 kg/ha,8
same,TRZAWM rating (Selectivity),[6]; 0.060 kg/ha,10
same,TRZAWM rating (Selectivity),[6]; 0.120 kg/ha,35
same,TRZAWM rating (Selectivity),[6]; 0.240 kg/ha,45
same,GALAP weed control rating,Galium aparine [7]; 0.030 kg/ha,90
same,GALAP weed control rating,Galium aparine [7]; 0.060 kg/ha,90
same,GALAP weed control rating,Galium aparine [7]; 0.120 kg/ha,93
same,GALAP weed control rating,Galium aparine [7]; 0.240 kg/ha,93
same,POLCO weed control rating,Polygonum convolvulus [8]; 0.060 kg/ha,35
same,POLCO weed control rating,Polygonum convolvulus [8]; 0.120 kg/ha,55
same,POLCO weed control rating,Polygonum convolvulus [8]; 0.240 kg/ha,80
same,SETVI weed control rating,Setaria viridis [9]; 0.030 kg/ha,95
same,SETVI weed control rating,Setaria viridis [9]; 0.060 kg/ha,98
same,SETVI weed control rating,Setaria viridis [9]; 0.120 kg/ha,99
same,SETVI weed control rating,Setaria viridis [9]; 0.240 kg/ha,100
same,VIOAR weed control rating,VIOAR; 0.030 kg/ha,90
same,VIOAR weed control rating,VIOAR; 0.060 kg/ha,90
same,VIOAR weed control rating,VIOAR; 0.120 kg/ha,90
same,VIOAR weed control rating,VIOAR; 0.240 kg/ha,93

# Reference: US7008905B2, “Method of combating undesired plant growth on cereals” (BASF Aktiengesellschaft, priority 2000, dated 2006)
